Measured values reported in patent US20230227466A1, “SUBSTITUTED THIENOPYRIMIDINES THAT INTERACT WITH THE RAS SUPERFAMILY FOR THE TREATMENT OF CANCERS, INFLAMMATORY DISEASES, RASOPATHIES, AND FIBROTIC DISEASE” (SHY Therapeutics, LLC, priority 2020, published 2023).
Like-named read-outs stand apart in the source and are kept apart here.

Legend:
KRas G12D mutant = target: T1, KRas G12D mutant (Homo sapiens, UniProt P01116, G12D); test: Ras GTP binding domain inhibition assay (labeled-GTP competition, cell-free)
T1 construct: made in house
How it was run: (§1)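 First, the His-tagged protein was captured overnight at 4° C on nickel wells. Second, compound was applied at 20 μM or as a dilution series for IC50 over 3 h. Third, 100 nM Cy3- or Cy5-GTP was added for 45 min. Finally, wells were washed and bound label quantified.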

KRas G12C mutant = target: T2, KRas G12C mutant (Homo sapiens, UniProt P01116, G12C); test: as above
T2 construct: made in house
How it was run: as §1

KRas Q61H mutant = target: T3, KRas Q61H mutant (Homo sapiens, UniProt P01116, Q61H); test: as above
T3 construct: made in house
How it was run: as §1

[1] = system: MIA-PaCa-2 pancreatic cancer cell line (KRAS G12C); test: Cell proliferation assay (CellTiter 96 Aqueous One); type: cell-based; details: Homo sapiens; for inhibition at 10 µM: MIA PaCa-2, read-out: % inh cell proliferation (10 μM) in MIA PaCa-2
How it was run: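 Percent inhibition of proliferation is derived from MTS absorbance data. Cells seeded at 2000–5000 per well were grown overnight before treatment. Compounds, at 10 μM final or in dilution series, stayed on cells for 2–4 days in medium containing 10% FBS and 0.3% DMSO.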

KRas wild type = KRas wild type (Homo sapiens, UniProt P01116); test: Ras GTP binding domain inhibition assay (labeled-GTP competition, cell-free); design: made in house
How it was run: as §1

Rac-1 = Rac-1 (Homo sapiens, UniProt P63000); test: as above; design: made in house
How it was run: as §1

Rho-A = Rho-A (Homo sapiens, UniProt P61586); test: as above; design: made in house
How it was run: as §1

[2] = with SOS, read-out: KRas G12D mutant + SOS: % inh.
[3] = without SOS, read-out: KRas G12D mutant: % inh.
[4] = with SOS, read-out: KRas G12C mutant + SOS: % inh.
[5] = without SOS, read-out: KRas G12C mutant: % inh.
[6] = with SOS, read-out: KRas Q61H mutant + SOS: % inh.
[7] = without SOS, read-out: KRas Q61H mutant: % inh.
[8] = with SOS, read-out: KRas wild type + SOS: % inh.
[9] = without SOS, read-out: KRas wild type: % inh.
[10] = with SOS, read-out: Rac-1 + SOS: % inh.
[11] = without SOS, read-out: Rac-1: % inh.
[12] = with SOS, read-out: Rho-A + SOS: % inh.
[13] = without SOS, read-out: Rho-A: % inh.

Row | inhibition at 20 µM (KRas G12D mutant; [2]) | inhibition at 20 µM (KRas G12D mutant; [3]) | inhibition at 20 µM (KRas G12C mutant; [4]) | inhibition at 20 µM (KRas G12C mutant; [5]) | inhibition at 20 µM (KRas Q61H mutant; [6]) | inhibition at 20 µM (KRas Q61H mutant; [7]) | IC50 ([1]; MIA PaCa-2, MIA PaCa-2) | IC50 ([1]; MIA PaCa-2, MIA-PaCa-2, 2-4 days, 10% FBS) | inhibition at 20 µM (KRas wild type; [8]) | inhibition at 20 µM (KRas wild type; [9]) | inhibition at 20 µM (Rac-1; [10]) | inhibition at 20 µM (Rac-1; [11]) | inhibition at 20 µM (Rho-A; [12]) | inhibition at 20 µM (Rho-A; [13]) | IC50 (KRas Q61H mutant; with SOS) | Structure (SMILES) | inhibition at 10 µM [1]
1 | 76 to 100% | 51 to 75% | 76 to 100% | 51 to 75% | 76 to 100% | 76 to 100% | 1 to 4.99 µM | 0.75 to 1 µM | 76 to 100% | 76 to 100% | 76 to 100% | 76 to 100% | 76 to 100% | 76 to 100% |  | COCC1CCN(c2nc(-c3nccn3C)nc3sc(-c4ccn(C(C)C)n4)c(C)c23)C1 (racemic) [Compound 38, rac-6-(1-Isopropyl-1H-pyrazol-3-yl)-4-(3-(methoxymethyl)pyrrolidin-1-yl)-5-methyl-2-(1-methyl-1H-imidazol-2-yl)thieno[2,3-d]pyrimidine] | 76 to 100%
2 | 1 to 25% | 1 to 25% | 0% | 0% | 1 to 25% | 0% | > 10 µM |  | 0% | 0% | 0% | 0% | 1 to 25% | 1 to 25% | > 10 µM | COCCNC(=O)c1nc(N[C@@H]2CC[C@H](OC)C2)c2ccsc2n1 (racemic) [Compound 14, rac-4-(((1R,3S)-3-Methoxycyclopentyl)amino)-N-(2-methoxyethyl)thieno[2,3-d]pyrimidine-2-carboxamide] | 0%
3 | 76 to 100% | 26 to 50% | 51 to 75% | 51 to 75% | 76 to 100% | 76 to 100% | > 10 µM |  | 51 to 75% | 76 to 100% | 76 to 100% | 76 to 100% | 76 to 100% | 76 to 100% |  | Cc1c(-c2ccn(C(C)C)n2)sc2nc(-c3nccn3C)nc(NCCc3nnn[nH]3)c12 [Compound 46, N-(2-(1H-Tetrazol-5-yl)ethyl)-6-(1-isopropyl-1H-pyrazol-3-yl)-5-methyl-2-(1-methyl-1H-imidazol-2-yl)thieno[2,3-d]pyrimidin-4-amine] | 1 to 25%
4 | 51 to 75% | 26 to 50% | 51 to 75% | 51 to 75% | 51 to 75% | 51 to 75% | < 1 µM |  | 51 to 75% | 76 to 100% | 26 to 50% | 26 to 50% | 76 to 100% | 51 to 75% |  | CO[C@H]1C[C@H](CNc2nc(-c3nccn3C)nc3sc(-c4ccn(C(C)C)n4)c(C)c23)C1 [Compound 48, 6-(1-Isopropyl-1H-pyrazol-3-yl)-N-(((1r,3r)-3-methoxycyclobutyl)methyl)-5-methyl-2-(1-methyl-1H-imidazol-2-yl)thieno[2,3-d]pyrimidin-4-amine] | 76 to 100%
5 | 76 to 100% | 76 to 100% | 76 to 100% | 76 to 100% | 76 to 100% | 76 to 100% | 5 to 10 µM |  | 51 to 75% | 76 to 100% | 76 to 100% | 76 to 100% | 76 to 100% | 76 to 100% | 5 to 10 µM | Cc1sc2c(O)nc(-c3ccccn3)nc2c1-c1ccccn1 [Compound 26, 6-Methyl-2,7-di(pyridin-2-yl)thieno[3,2-d]pyrimidin-4-ol] | 51 to 75%
6 | 51 to 75% | 0% | 51 to 75% | 26 to 50% | 51 to 75% | 51 to 75% | 5 to 10 µM |  | 51 to 75% | 26 to 50% |  | 1 to 25% |  | 26 to 50% |  | COc1cc(Nc2nc(-c3nccn3C)nc3sc(-c4ccn(C(C)C)n4)c(C)c23)ccn1 [Compound 67, 6-(1-Isopropyl-1H-pyrazol-3-yl)-N-(2-methoxypyridin-4-yl)-5-methyl-2-(1-methyl-1H-imidazol-2-yl)thieno[2,3-d]pyrimidin-4-amine] | 76 to 100%
7 | 51 to 75% | 51 to 75% | 76 to 100% | 51 to 75% | 76 to 100% | 51 to 75% | > 10 µM |  | 76 to 100% | 76 to 100% | 51 to 75% | 51 to 75% | 76 to 100% | 76 to 100% | 1 to 4.99 µM | Cn1ccnc1-c1nc(O)c2scc(-c3ncccc3F)c2n1 [Compound 30, 7-(3-Fluoropyridin-2-yl)-2-(1-methyl-1H-imidazol-2-yl)thieno[3,2-d]pyrimidin-4-ol] | 26 to 50%
8 | 26 to 50% | 51 to 75% | 26 to 50% | 26 to 50% | 26 to 50% | 26 to 50% | > 10 µM |  | 1 to 25% | 26 to 50% | 26 to 50% | 26 to 50% | 26 to 50% | 26 to 50% | > 10 µM | NC(=O)c1nc(O)c2scc(-c3ccccn3)c2n1 [Compound 18, 4-Hydroxy-7-(pyridin-2-yl)thieno[3,2-d]pyrimidine-2-carboxamide] | 0%
9 | 76 to 100% | 51 to 75% | 76 to 100% | 76 to 100% | 76 to 100% | 76 to 100% | < 1 µM |  | 76 to 100% | 76 to 100% | 76 to 100% | 76 to 100% | 76 to 100% | 26 to 50% |  | COCCCNc1nc(-c2nccn2C)nc2sc(-c3ccn(C(C)C)n3)c(C)c12 [Compound 36, 6-(1-Isopropyl-1H-pyrazol-3-yl)-N-(3-methoxypropyl)-5-methyl-2-(1-methyl-1H-imidazol-2-yl)thieno[2,3-d]pyrimidin-4-amine] | 76 to 100%
10 | 51 to 75% | 1 to 25% | 76 to 100% | 51 to 75% | 76 to 100% | 26 to 50% | < 1 µM |  | 76 to 100% | 51 to 75% | 26 to 50% | 26 to 50% | 51 to 75% | 51 to 75% | 1 to 4.99 µM | CO[C@H]1CC[C@@H](Nc2nc(-c3nccn3C)nc3sc(-c4ccn(C(C)C)n4)c(-c4ccccc4)c23)C1 [Compound 5, 6-(1-Isopropyl-1H-pyrazol-3-yl)-N-((1R,3S)-3-methoxycyclopentyl)-2-(1-methyl-1H-imidazol-2-yl)-5-phenylthieno[2,3-d]pyrimidin-4-amine] | 76 to 100%
